Laboratory results taken from paper PMC3515450, “Mechanistic and Structural Understanding of Uncompetitive Inhibitors of Caspase-6” (PLoS ONE, 2012).

Assays:
caspase-3 = molecular target: T1, caspase-3 (Homo sapiens, UniProt P42574); assay: Caspase-3 enzymatic assay with divalent R110 substrates; assay type: biochemical
T1 construct: as the catalytic domain consisting of large p20 and small p10 subunits without prodomain; made in house
T1 sequence (P42574 29-175 limits assumed): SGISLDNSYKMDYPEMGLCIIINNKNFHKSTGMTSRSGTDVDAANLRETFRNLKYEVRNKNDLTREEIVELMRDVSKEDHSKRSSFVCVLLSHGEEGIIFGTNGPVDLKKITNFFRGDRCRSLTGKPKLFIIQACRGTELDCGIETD
T1 sequence (P42574 176-277 limits assumed): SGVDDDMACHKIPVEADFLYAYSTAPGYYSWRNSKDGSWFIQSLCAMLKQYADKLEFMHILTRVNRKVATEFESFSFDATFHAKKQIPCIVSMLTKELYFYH
Protocol: (§1) The in vitro enzymatic caspase assays utilize synthetic tetrapeptide substrates labeled with the fluorophores Rhodamine110 (R110) or 7-amino-4-methylcoumarin (AMC) at the P1 aspartic acid (Asp) residue. All assays were performed in 384-well plates in 12 µL reaction volume consisting of enzyme, substrate and indicated concentration of inhibitor or DMSO in assay buffer (50 mM HEPES [pH 7.0], 25 mM MgSO4, 0.5 mM EGTA, 5 mM Glutathione (GSH), 0.01% Triton X-100 containing 0.1% Bovine Gamma Globulin (BGG)). All inhibitors were serially diluted in 100% DMSO prior to dilution in assay buffer and transfer to assay plate. DMSO was diluted into assay buffer similarly for blank wells (no enzyme or compound) and final DMSO concentration was 1%. The concentration of caspase-6 used in enzymatic reactions typically varied between 1–10 nM depending on substrate used. Unless otherwise indicated, substrate concentration was within 3-fold of the determined Kmapparent (5 µM (Ac-VEID)2R110 [Kmapp = 8 µM]; 5 µM (Ac-DEVD)2R110 [Kmapp = 8 µM]; 25 µM (Ac-IETD)2R110 [Kmapp = 70 µM]; 25 µM (Ac-WEHD)2R110 [Kmapp = 70 µM]; 10µM Ac-VEID-AMC [Kmapp = 16µM]; 5 µM Ac-VEID-R110 [Kmapp = 8 µM]). The concentration of substrate utilized in selectivity assays for each caspase isoform was also held as close to Kmapparent as reasonably achievable (Table S1). Caspases-3 and -7 were expressed and purified at Genentech as the catalytic domain consisting of large p20 and small p10 subunits without prodomain. For all caspase enzymatic assays, the reaction plate was incubated at room temperature for 40 minutes and then read on Envision (Perkin Elmer) fluorescent plate reader at excitation/emission wavelengths of 485/535 nm (R110) or 350/450 nm (AMC).
The endpoint fluorescent emission (RFU) in each well was plotted as a function of inhibitor concentration and the 50% inhibition (IC50) values were determined using a nonlinear least squares fit of the data to a four parameter equation using Prism 5.0 software (GraphPad Software, San Diego, CA). […]

caspase-7 = molecular target: T2, caspase-7 (Homo sapiens, UniProt P55210); assay: Caspase-7 enzymatic assay with divalent R110 substrate; assay type: biochemical; details: caspase-7, (DEVD)2R110 substrate
T2 construct: as the catalytic domain consisting of large p20 and small p10 subunits without prodomain; made in house
T2 sequence (P55210 24-198 limits assumed): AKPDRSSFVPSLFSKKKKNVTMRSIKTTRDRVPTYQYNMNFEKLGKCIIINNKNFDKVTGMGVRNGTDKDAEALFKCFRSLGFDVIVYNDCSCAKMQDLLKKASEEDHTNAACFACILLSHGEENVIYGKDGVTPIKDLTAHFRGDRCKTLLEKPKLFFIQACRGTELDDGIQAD
T2 sequence (P55210 207-303 limits assumed): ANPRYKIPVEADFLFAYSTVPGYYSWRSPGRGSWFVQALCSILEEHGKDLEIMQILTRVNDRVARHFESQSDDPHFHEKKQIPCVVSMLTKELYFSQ
Protocol: as §1, with “The concentration of caspase-6 used in enzymatic reactions typically varied between 1–10 nM depending on substrate used.” left out, “The concentration of substrate utilized in selectivity assays for each caspase isoform was also held as close to Kmapparent as reasonably achievable (Table S1). Caspases-3 and -7 were expressed and purified at Genentech as the catalytic domain consisting of large p20 and small p10 subunits without prodomain.” left out, “(AMC). […]” for “(AMC).”

Measured: IC50

COc1ccc(-c2cc(C(=O)N[C@@H](CO)Cc3cccc(C#N)c3)co2)cc1OC [Compound 3]
> 100 µM: caspase-3; caspase-3, (DEVD)2R110 substrate | caspase-3; caspase-3, (VEID)2R110 substrate | caspase-7
